In patent US20050079176A1, “Treating stress response with chemokine receptor ccr5 modulators” (priority 2002, published 2005):
Where “and” joins values, the source holds several entries; their conditions need not be identical. Identical values can stand only once. Entries after “also recorded” stand apart in the source; their conditions may differ.

Experiments:
CCR5 receptor = target: T1, CCR5 receptor (Macaca fascicularis, UniProt P61814); experiment: Receptor occupancy corresponding to plasma concentration; assay type: binding; settings: at a concentration of 100 nM
T1 construct: endogenous in cells; host or cells: cynomolgus monkey (in vivo, CCR5-bearing leukocytes)

[1] = Plasma trough concentrations by LC-MS/MS; assay type: in vivo, Macaca fascicularis; settings: cynomolgus plasma, Compound A i.v. b.i.d.
[2] = system: IL6 mRNA expression in RANTES-stimulated macrophages; experiment: Cytokine mRNA expression (TaqMan) in RANTES-stimulated human macrophages: IL6; assay type: cell-based; settings: RANTES 250 nM
Method: (§1) Human monocytes were isolated white blood cells concentrated from units of blood (i.e., leukopaks) from normal donors. To enhance CCR5 expression, the monocytes were cultured under suspension conditions in Teflon jars for 2 days in media supplemented with 12% fetal bovine serum. 10^6 cells were seeded and allowed to attach for over 2 hours in 6-well tissue culture plates. Cells were pre-incubated with either dimethylsulfoxide (DMSO; vehicle control) or Compound A at various concentrations for 1 hour, after which RANTES (the CCR5 agonist/ligand; Pepro Tech Inc.) was added at 250 nM, or, alternatively, media was added as a control. The cells were incubated at 37° C. for 24 hours, after which the media were removed and centrifuged to precipitate the non-adherent cells. Both the adhered and non-adhered cells were lysed and subjected to mRNA isolation, and the mRNA isolate was analyzed for cytokine expression by quantitative real time PCR (TaqMan). The relative mRNA-fold induction of cytokine gene expression in the RANTES-stimulated macrophages was calculated relative to day 2 non-stimulated, non-treated controls (i.e. fold induction=1 on day 2 for controls), as well as fold mRNA induction relative to vehicle (DMSO) (0 nM) control RANTES stimulated cells.

IL8 = experiment: Cytometric Bead Array Human Inflammation Kit, serum/plasma on day of explant: IL8; assay type: in vivo, cynomologous monkeys; settings: Compound A-treated monkeys
Method: (§2) Serum and plasma samples taken from the cynomologous monkeys in Example 1 on the day of explant (i.e., the day of graft rejection) were analyzed using the BD Pharmingen Cytometric Bead Array Human Inflammation Kit, which can measure IL1-β, IL6, IL8, IL10, IL12p70 and TNF-α. Reagents to detect IL6, IL8 and TNF-α have been shown by the manufacturer to cross react with rhesus and cynomologus monkey proteins. At the time of the assay, reagents to measure IL1-beta and IL12p70 had not yet been tested for cross reactivity to non-human primate proteins.
Samples were assayed in the manner described in the manufacturer's protocol booklet; i.e., “Human Inflammation Kit—Instruction Manual” (BD Biosciences, Cat. No. 551811, pdf copy available at www.bdbiosciences.com). Briefly, assay standards were reconstituted with assay diluent and diluted in two fold steps by serial dilution. Capture beads were mixed and distributed into an appropriate number of 12×75 mm polystyrene tubes. Standards or samples were added to the tubes and incubated in the dark at room temperature for 1.5 hours. The incubated tubes were washed once and phycoerythrin (PE)-labeled detection antibody reagent was added. Samples were again incubated in the dark at room temperature for 1.5 hours. […] Flow cytometer data was acquired using a Becton Dickinson FACSCalibur and analyzed with Becton Dickinson CBA Software.

[3] = system: Cynomolgus macaques (Macaca fascicularis); experiment: Fever suppression after cardiac allotransplantation (telemetry body temperature, behaviour); assay type: in vivo; settings: for monkeys that did not develop a fever (temperature greater than 38.5° C.): while recovering from transplantation, seven monkeys treated with CCR5 antagonist (alone or with cyclosporin)
CCR5+ cells = experiment: Double-label immunofluorescence microscopy of leukocytes infiltrating rejecting allografts; assay type: in vivo, Macaca fascicularis; settings: in association with CCR5 blockade
From the text: Double-label immunofluorescence microscopy using antibodies specific for CD3, CD68, CD11b, CCR5 and CXCR3 was used to characterize leukocyte populations infiltrating acutely rejecting (days 4, 6) cynomolgus cardiac allografts. CCR5 and CXCR3 are prominent on monocytes/macrophages and to a lesser extent on T-cells in rejecting cynomolgus heart allografts. Co-localization of CCR5 and CXCR3 to the same cells was common, particularly on the […] monocyte/macrophage population. Infiltration of CCR5+ cells was inhibited in association with CCR5 blockade. Graft failure was identified by a decrease in heart rate and ST elevation (associated with ischemia) on EKG and a decrease in arterial line pressure. […] (Note: n=7 refers to the data for the 3 control (i.e., saline) monkeys in this experiment plus data for 4 animals from a historic database that were scored as controls in which cyno cardiac allografts were rejected in the absense of immunosupression in a manner identical to the three controls in this experiment.)

[4] = system: cynomolgus cardiac allografts; experiment: Cardiac allograft survival / graft function after heterotopic transplantation; assay type: in vivo, Macaca fascicularis
From the text: Cynomolgus macaques (Macaca fascicularis), weighing 2.4-4.7 kg, and ranging in estimated age from 2.2-5.5 years were selected as organ recipients. Donors were matched to recipients by AB blood type compatibility as tested by New York University, Nelson Institute of Environmental Medicine, Tuxedo, N.Y. MHC class II mismatch was assured by a stimulation index (SI)>3 in paired animals in unidirectional mixed lymphocyte reaction (MLR) using potential donor lymphocytes as stimulators and potential recipient peripheral blood mononuclear cells (PBMCs) as responders. Animals were matched by assigning pairs with maximal MLR response within groups of blood type compatible animals.
Donor operation: After systemic heparinization (70 units/kg, Elkins-Sinn Inc., Cherry Hill, N.J.) and collection of donor blood during equivolemic saline infusion, diastolic arrest of the donor heart was induced with University of Wisconsin organ preservation solution (15-20 cc/kg, 4° C.) via the aortic root. The heart was explanted and prepared: The mitral valve was rendered incompetent surgically, to prevent left ventricular distention, and an atrial septal defect was created by excising the fossa ovalis, to allow blood entering the left heart through the thebesian circulation to transit to and be ejected from the right heart.
Recipient operation: All recipient animals underwent traditional non-working intraabdominal cardiac allograft transplantation using a single clamp technique, wherein the donor aorta was anastomosed end-to-side to the infrarenal abdominal aorta, and the donor pulmonary artery was anastomosed to the adjacent vena cava. Heparin (70 Units/kg) (a Unit is equivalent to 3 mg/kg of body weight) was administered to the recipient prior to clamp placement. A silicon central venous catheter was introduced via the internal jugular vein, and tunneled to exit between the scapulae. Catheters were attached to swivel connection systems, and animals placed in protective cloth jackets incorporating a swiveling system which protected venous access.
Graft function and body temperature were assessed twice daily by monitoring with a fully implantable telemetry device (Data Sciences International, St. Paul, Minn.) (electrocardiogram (EKG), right ventricular pressure and animal body temperature) implanted at the time of transplantation. Confirmatory abdominal ultrasounds were performed at the time of protocol biopsies and whenever an examiner appreciated decreased contractility, if EKG voltage or rate (<120 beats per minute) was decreased, or if developed pulse pressure (delta P) in the graft was decreased. Cardiac biopsies were performed by protocol on postoperative days 4, 7, 14, through a laparotomy incision using a core biopsy needle. Graft failure was defined as loss of palpable graft activity, with ultrasound confirmation of weak or absent myocardial contractility. Failed grafts were explanted promptly and examined histologically.
Three animals received Compound A as monotherapy at a dose of 5 mg/kg, two animals received Compound A as monotherapy at a dose of 10 mg/kg, and three animals received an equivalent volume of saline (control). Compound A was administered intravenously twice daily at 12 hour intervals (i.e., b.i.d.) starting at transplant. […] The dose on the first day was 12.5 mg/kg, then 10 mg/kg daily for 7 days, then 5 mg/kg daily for 7 days, then 2.5 mg/kg/day until graft rejection or animal sacrifice.

IL6 [5] = experiment: Cytometric Bead Array Human Inflammation Kit, serum/plasma on day of explant: IL6; assay type: in vivo, cynomologous monkeys
Method: as §2
Samples were assayed in the manner described in the manufacturer's protocol booklet; i.e., “Human Inflammation Kit—Instruction Manual” (BD Biosciences, Cat. No. 551811, pdf copy available at www.bdbiosciences.com). Briefly, assay standards were reconstituted with assay diluent and diluted in two fold steps by serial dilution. Capture beads were mixed and distributed into an appropriate number of 12×75 mm polystyrene tubes. Standards or samples were added to the tubes and incubated in the dark at room temperature for 1.5 hours. The incubated tubes were washed once and phycoerythrin (PE)-labeled detection antibody reagent was added. Samples were again incubated in the dark at room temperature for 1.5 hours. After one final wash, samples were resuspended in 300 uL of wash buffer. Flow cytometer data was acquired using a Becton Dickinson FACSCalibur and analyzed with Becton Dickinson CBA Software.

IL6 [6] = experiment: Serum IL6 by DuoSet ELISA pre and post heterotopic heart transplant; assay type: in vivo, cynomolgus monkeys
Method: IL1β and IL6 can be measured using the DuoSet ELISA development kits from R&D Systems (Minneapolis, Minn.), following the directions of the manufacturer. Briefly, plates are coated with capture antibody [mouse anti-human IL1β (2 μg/ml) or mouse anti-human IL6 (4 μg/ml)] and detection antibodies are used at 100 ng/ml (biotinylated goat anti-human IL1β) or 200 ng/ml (biotinylated goat anti-human IL6). Standards are prepared with recombinant protein (3.9-250 pg/ml for IL1β and 4.7-300 pg/ml for IL6). Streptavidin conjugated to horseradish peroxidase and H2O2/tetramethylbenzidine are used for color development. Optical density (OD) is measured at 450 nm, with correction at 570 nm.
Serum samples were taken from the cynomolgus monkeys in Example 1 at various time points pre- and post-transplantation. The samples were diluted 1:2, in PBS/0.1% BSA/0.05% Tween 20. (PBS=phosphate buffered saline; BSA=bovine serum albumin.) IL6 levels (pg/ml) in pre and post heterotopic heart transplant in serum from the cynomolgus monkeys treated with Compound A were determined obtained in accordance with the above-described procedure.

[7] = system: IL1-beta mRNA expression in RANTES-stimulated macrophages; experiment: Cytokine mRNA expression (TaqMan) in RANTES-stimulated human macrophages: IL1-beta; assay type: cell-based; settings: RANTES 250 nM
Method: as §1

[8] = Homo sapiens, Macrophage, Compound A 10 nM, 24 hours, mean ± SD
[9] = Homo sapiens, Macrophage, Compound A 30 nM, 24 hours, mean ± SD
[10] = Homo sapiens, Macrophage, Compound A 300 nM, 24 hours, mean ± SD

SMILES: CCn1nc(Cc2ccccc2)cc1C1CCN(C[C@H]2C[C@H](N(C)[C@@H](C(=O)O)C(C)C)C[C@@H]2c2cccc(F)c2)CC1 [Compound A]
- receptor occupancy at 0.1 µM (CCR5 receptor): ~90%
- trough plasma concentration (levels fell below target range at trough) [1]: < 100 nM
- inhibition at 0.003 µM ([2]; Homo sapiens, Macrophage, Compound A 3 nM, 24 hours): 43%
- inhibition at 0.01 µM [2, 8]: 16.1%
- inhibition at 0.03 µM [2, 9]: 65.9%
- inhibition at 0.1 µM ([2]; Homo sapiens, Macrophage, Compound A 100 nM, 24 hours): 67.1%
- inhibition at 0.3 µM [2, 10]: 85.9%
- effect on IL6 mRNA up-regulation by RANTES ([2]; human macrophages): diminish IL1-β and IL6 up-regulation significantly; also recorded: dose-dependent
- IL8 cytokine levels at the time of graft rejection relative to CsA-only treated monkeys (IL8): did not indicate suppression of IL8 levels
- malaise ([3]; after cardiac allotransplantation, in contrast to the five control animals): not to exhibit malaise
- symptoms of abdominal tenderness ([3]; after transplant and during rejection of the graft): did not exhibit any symptoms of abdominal tenderness
- recovery from surgery (how quickly normal activity levels resumed) ([3]; despite additional procedures on days 4 and 7-8): recovered more quickly from surgery
- average temperature ([3]; first three days after allograft implantation, six of the seven animals treated with Compound A (5 or 10 mg/kg b.i.d. i.v., alone or with CsA)): below 37.5 °C
- average temperature difference versus control monkeys (saline, no immunosuppressive therapy) ([3]; first three days after surgery): about one degree lower
- average temperature difference versus cyclosporin-only-treated animals ([3]; first three days after surgery): one half degree lower; also recorded: about 0.5 °C
- average temperature over the first three days after surgery ([3]; monkeys with cardiac allografts, control (saline) ca. 38.5° C.): circa 37.5 °C
- animals in which individual temperature elevations reached 38.5° C. on any occasion ([3]; of the seven animals treated with Compound A): 3
- monkeys that did not develop a fever (temperature greater than 38.5° C.) [3]: six of seven
- monkeys that did not develop a fever (temperature greater than 38.5° C.) ([3]; listed as CCR5 antagonist): Six out of the seven
- Infiltration of CCR5+ cells into cardiac allografts (CCR5+ cells): inhibited
- Graft survival ([4]; Compound A monotherapy 5 mg/kg i.v. b.i.d., n=3, controls 6±0.4 days (n=7), p=0.05): 8.3 ± 0.6 days
- Explant Day (day of graft rejection) ([4]; M308, Compound A monotherapy at 10 mg/kg/day b.i.d.): 8
- Explant Day (day of graft rejection) ([4]; M627, Compound A 10 mg/kg b.i.d., rescued day 9 with bolus steroids, combined therapy with CsA 43 days, from day 52 Compound A monotherapy): 85
- day to which vigorous graft function persisted ([4]; one animal: Compound A alone 10 mg/kg b.i.d., rescued day 9 with bolus steroids, combined therapy with CsA 43 days, CsA stopped day 52, Compound A continued): 83 days and 78 days
- IL6 on day of explant (IL6 [5]; M308, Compound A monotherapy at 10 mg/kg/day b.i.d., explant day 8): 58 pg/mL
- IL6 on day of explant (IL6 [5]; M627, Compound A 10 mg/kg b.i.d., steroid rescue day 9, combined therapy with CsA 43 days, Compound A monotherapy from day 52, explant day 85): 20 pg/mL
- IL6 cytokine levels at the time of graft rejection relative to monkeys treated only with CsA (IL6 [5]; monkeys treated with Compound A): suppressed
- IL6 level, Day 0 Post (IL6 [6]; serum post-transplantation, Compound A monotherapy 10 mg/kg/day b.i.d., M308, M627): 63.7 pg/mL and 106.2 pg/mL
- IL6 level, Day 0 Pre (IL6 [6]; serum pre-transplantation, animals M308, M627 later given Compound A monotherapy 10 mg/kg/day b.i.d.): 4.6 pg/mL and 3.4 pg/mL
- IL6 level, Day 8 (IL6 [6]; serum, Compound A monotherapy 10 mg/kg/day b.i.d., M308): 24.3 pg/mL
- inhibition at 0.003 µM ([7]; Homo sapiens, Macrophage, Compound A 3 nM, 24 hours, mean ± SD): 37.6%
- inhibition at 0.01 µM [7, 8]: 50.1%
- inhibition at 0.03 µM [7, 9]: 59%
- inhibition at 0.1 µM ([7]; Homo sapiens, Macrophage, Compound A 100 nM, 24 hours, mean ± SD): 76.8%
- inhibition at 0.3 µM [7, 10]: 80.6%
- effect on IL1-β mRNA up-regulation by RANTES ([7]; human macrophages): diminish IL1-β and IL6 up-regulation significantly; also recorded: dose-dependent
